Activity calls are given as the source filed them. No cut-off for these calls is given here.
How the values were obtained:
[1] = test system: Mycobacterium tuberculosis; experiment: Inhibition of N-terminal hexahistidine-tagged recombinant Mycobacterium tuberculosis PtpB expressed in Escherichia coli BL21(DE3) using p-nitrophenylphosphate as substrate at 25 uM measured for 10 mins by ELISA plate spectrophotometric analysis relative to control
[2] = Inhibition of N-terminal hexahistidine-tagged recombinant Mycobacterium tuberculosis PtpB expressed in Escherichia coli BL21(DE3) using p-nitrophenylphosphate as substrate measured for 10 mins by ELISA plate spectrophotometric analysis
[3] = target: T1, Tyrosine-protein phosphatase non-receptor type 1 (Homo sapiens, UniProt P18031); experiment: Inhibition of PTP1B (unknown origin) using p-nitrophenylphosphate as substrate measured for 10 mins by ELISA plate spectrophotometric analysis
T1 sequence (P18031 whole entry): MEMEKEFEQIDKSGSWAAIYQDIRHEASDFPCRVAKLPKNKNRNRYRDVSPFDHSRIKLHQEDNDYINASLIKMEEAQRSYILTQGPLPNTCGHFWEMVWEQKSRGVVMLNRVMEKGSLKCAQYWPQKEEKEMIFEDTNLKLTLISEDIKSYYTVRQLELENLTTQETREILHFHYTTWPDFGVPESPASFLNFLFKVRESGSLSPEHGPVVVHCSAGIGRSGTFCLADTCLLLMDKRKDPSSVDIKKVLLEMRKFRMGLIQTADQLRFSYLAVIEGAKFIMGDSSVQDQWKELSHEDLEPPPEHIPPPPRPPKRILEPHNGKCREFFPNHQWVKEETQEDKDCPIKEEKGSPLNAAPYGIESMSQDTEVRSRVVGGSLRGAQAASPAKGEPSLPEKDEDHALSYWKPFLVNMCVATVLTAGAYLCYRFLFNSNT

[4] = Competitive inhibition of N-terminal hexahistidine-tagged recombinant Mycobacterium tuberculosis PtpB expressed in Escherichia coli BL21(DE3) using p-nitrophenylphosphate as substrate measured for 10 mins by Lineweaver-Burk plot analysis

| SMILES | inhibition [1] | IC50 [2] | IC50 [3] | Ki [4] |
| --- | --- | --- | --- | --- |
| O=C1C2C3C=CC(O3)C2C(=O)N1c1ccc(S(=O)(=O)N2CCCC2)cc1 (stereo not drawn) | inactive |  |  |  |
| O=C1C2C3C=CC(O3)C2C(=O)N1c1ccc(S(=O)(=O)N/N=C/c2ccc([N+](=O)[O-])cc2)cc1 (stereo not drawn) | 57% | 41 µM | 245 µM | 15 µM |
| O=C1C=CC(=O)N1c1ccccc1 | 27% |  |  |  |
| Cc1ccc(/C=N/NS(=O)(=O)c2ccc(N3C(=O)C4C5C=CC(C)(O5)C4C3=O)cc2)cc1 (stereo not drawn) | 26% |  |  |  |
| CC12C=CC(O1)C1C(=O)N(c3ccc(S(=O)(=O)N4CCCC4)cc3)C(=O)C12 (stereo not drawn) | inactive |  |  |  |
| COc1ccc(/C=N/NS(=O)(=O)c2ccc(N3C(=O)C4C5C=CC(C)(O5)C4C3=O)cc2)cc1 (stereo not drawn) | inactive |  |  |  |
| O=C1C=CC(=O)N1c1ccc(S(=O)(=O)Cl)cc1 | 14% |  |  |  |
| CC12C=CC(O1)C1C(=O)N(c3ccc(S(=O)(=O)N/N=C/c4ccc(Cl)cc4)cc3)C(=O)C12 (stereo not drawn) | 59% | 21 µM | 41 µM | 2.5 µM |
| CC12C=CC(O1)C1C(=O)N(c3ccc(S(=O)(=O)N/N=C/c4ccccc4)cc3)C(=O)C12 (stereo not drawn) | 59% | 18 µM | 7 µM | 7 µM |
| O=C1c2cccc3c(Cl)ccc(c23)C(=O)N1Cc1ccc(S(=O)(=O)N2CCOCC2)cc1 | inactive |  |  |  |
| O=C1c2cccc3cccc(c23)C(=O)N1Cc1ccc(S(=O)(=O)N2CCOCC2)cc1 | inactive |  |  |  |
| CC12C=CC(O1)[C@@H]1C(=O)N(c3ccc(S(=O)(=O)N/N=C/c4ccc(Br)cc4)cc3)C(=O)[C@@H]12 (stereo partly drawn) | 59% | 39 µM | 88 µM | 9 µM |
| CC12C=CC(O1)C1C(=O)N(c3ccc(S(=O)(=O)N/N=C/c4ccc([N+](=O)[O-])cc4)cc3)C(=O)C12 (stereo not drawn) | 32% |  |  |  |
| CC12C=CC(O1)C1C(=O)N(c3ccc(S(=O)(=O)N4CCOCC4)cc3)C(=O)C12 (stereo not drawn) | inactive |  |  |  |
| O=C1c2cccc3cccc(c23)C(=O)N1Cc1ccc(S(=O)(=O)N2CCCC2)cc1 | inactive |  |  |  |
| CC12C=CC(O1)C1C(=O)N(c3ccc(S(=O)(=O)N/N=C/c4ccc(Cl)c(Cl)c4)cc3)C(=O)C12 (stereo not drawn) | 34% |  |  |  |

— ChEMBL document CHEMBL3217734, “Sulfonyl-hydrazones of cyclic imides derivatives as potent inhibitors of the Mycobacterium tuberculosis protein tyrosine phosphatase B (PtpB)” (Medchemcomm, 2011)
